Test results reported in paper PMC11530827, “Characterization of a cytochrome P450 that catalyzes the O-demethylation of lignin-derived benzoates” (The Journal of Biological Chemistry, 2024).

Columns and labels:
PbdA S237A = biological target: T1, PbdA S237A (Rhodococcus jostii, UniProt Q0SCI3, S235A); experiment: Substrate binding to PbdA S237A variant by spectral titration; set-up: species or system Rhodococcus jostii RHA1
T1 construct: hexaHis (N, cleaved yes); made in house; host or cells: PbdA variant: E. coli BL-21 λ (DE3); PbdB: Rhodococcus jostii RHA1
Procedure: (§1) UV-visible spectroscopy was conducted with a Cary 60 spectrophotometer equipped with a thermostatted cuvette holder at 25 °C. Scans of purified proteins diluted in 20 mM Mops, I = 0.1 M, pH 7.2 were taken between 250 and 700 nm. Heme concentration was calculated as described previously ([35]). Carbon monoxide binding was determined by reduction of PbdA diluted in 20 mM Mops, I = 0.1 M, pH 7.2 as above by a few grains of […]. CO was bubbled into the reduced enzyme for approximately 60 s at a rate of one bubble per second. Dissociation constants (Kd) were determined by titration of ligands diluted into enzyme buffer from 1 M stocks prepared in dimethyl sulfoxide into PbdA diluted in 20 mM Mops, I = 0.1 M, pH 7.2. Spectra take upon addition of substrate were subtracted from the spectrum of the enzyme, and peak-to-trough distance was plotted by ligand concentration. Kd values were determined by fitting a hyperbolic equation to the data as described previously ([23], [36]). The proportion of high-spin heme iron was determined using the approximate peak-to-trough extinction coefficient (ε ≈ 100 mM^−1 cm^−1) ([36]).

PbdA S87A [1] = biological target: T2, PbdA S87A (Rhodococcus jostii, UniProt Q0SCI3, S85A); experiment: Substrate binding to PbdA S87A variant by spectral titration; set-up: species or system Rhodococcus jostii RHA1
T2 construct: hexaHis (N, cleaved yes); made in house; host or cells: PbdA variant: E. coli BL-21 λ (DE3); PbdB: Rhodococcus jostii RHA1
Procedure: as §1

PbdA S87A [2] = biological target: T2, PbdA S87A; experiment: Activity and coupling assay of PbdA S87A variant with PbdB; type: biochemical, Rhodococcus jostii RHA1
Procedure: For activity measurements 0.25 to 1 μM of PbdA and PbdB were combined in a 200 μl cuvette in 20 mM Mops, pH 7.2 with substrate diluted in the same buffer. NADH was added to 350 μM to initiate the reaction. For HPLC analysis, enzymatic reactions were acidified by adding acetic acid to 10% final concentration, centrifuged (16,000×g for 10 min), and filtered through a 0.2 μm polytetrafluoroethylene membrane. Samples were run over a Luna 5 μm C18(2) 100 Å 150 × 3 mm column (Phenomenex) at 0.7 ml min^−1 by a Waters 2695 separation HPLC module. Samples were eluted with a 16.8 ml linear gradient from 1% methanol plus 0.1% formic acid in water to 100% methanol plus 0.1% formic acid and monitored at 280 nm with a Waters 2996 photodiode array detector. Concentrations were determined by interpolation on a standard curve of 0 to 1 mM of authentic standard. NADH concentration was measured by absorbance at 340 nm, ε = 6.22 mM^-1 cm^-1. Coupling was calculated from the ratio of rate of aromatic turnover, as determined by HPLC, and the rate of NADH oxidation, determined spectroscopically. Buffer ionic strength was adjusted by addition of NaCl, as appropriate. Apparent steady-state kinetic parameters were calculated by fitting Michaelis–Menten equations to initial velocity of reactions at various concentrations of aromatic substrate (LEONORA).
^aExperiments were performed using air-saturated MOPS (I = 0.1 M), pH 7.2, at 25 °C. The rate of aromatic substrate turnover was based on the appearance of O-demethylated product. Standard deviation is shown in parentheses.

T2 sequence (Q0SCI3 entry or part of it S85A): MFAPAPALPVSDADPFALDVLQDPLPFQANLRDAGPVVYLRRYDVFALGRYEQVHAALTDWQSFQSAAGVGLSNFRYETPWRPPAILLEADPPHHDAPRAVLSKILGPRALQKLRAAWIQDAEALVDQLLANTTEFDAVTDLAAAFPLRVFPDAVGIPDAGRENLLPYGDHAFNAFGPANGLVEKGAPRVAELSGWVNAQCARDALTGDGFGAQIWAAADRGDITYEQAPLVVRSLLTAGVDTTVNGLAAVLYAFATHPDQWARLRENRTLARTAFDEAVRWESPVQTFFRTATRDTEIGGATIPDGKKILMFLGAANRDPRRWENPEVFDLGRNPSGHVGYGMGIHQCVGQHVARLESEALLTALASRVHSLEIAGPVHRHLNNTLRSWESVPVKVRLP
T1 sequence (Q0SCI3 entry or part of it S235A): as the sequence (Q0SCI3 entry or part of it S85A) above, with A85S, S235A counted along it

How did the Kd (PbdA S237A) turn out when `COc1ccc(C(=O)O)cc1` [p-MBA, p-methoxybenzoate] was run?
Its Kd is 29 µM.

And the “ΔG°” value (PbdA S237A; S237A variant, binding energy)?
Its value is -6.2 kcal/mol.

And the “ΔΔG°” value (PbdA S237A; S237A variant, comparison of ΔG° of variant to wild type)?
The value was 1.2 kcal/mol.

And the Kd (PbdA S87A [1])?
Its Kd is 50 µM.

What about the “ΔG°” value (PbdA S87A [1]; S87A variant, binding energy) of the same compound?
The value was -5.9 kcal/mol.

And the “ΔΔG°” value (PbdA S87A [1]; S87A variant, comparison of ΔG° of variant to wild type)?
Its value is 1.5 kcal/mol.

And the Coupling (PbdA S87A [2])?
The Coupling was 45 (7) %.

And the Specific activity (PbdA S87A [2]; O-demethylation)?
The Specific activity was 800 (200) U μg P450^-1.

And the NADH depletion rate (PbdA S87A [2]; air-saturated MOPS (I = 0.1 M), pH 7.2, 25 °C)?
Its NADH depletion rate is 1700 (200) U mg P450^-1.

What about the “Rate of Aromatic turnover” value (PbdA S87A [2]; appearance of O-demethylated product) of the same compound?
The value was 800 (200) U mg P450^-1.
